Data on 2 molecules can be found in patent US7993822B2, “Aging biomarker” (Vlaams Interuniversitair Instituut Voor Biotechnologie VZW, priority 2004, dated 2011).

The subject of series [1] is rat. As to the kind of experiment: Biochemical assay in serum (ALAT, ASAT, TBil) of CCl4 exposed rats, with or without Interferon-γ co-treatment. The class given is in vivo, rat (Wistar). An excerpt: (§1) The repeated administration of CCl4 is widely employed as an animal model of human hepatic fibrosis/cirrhosis. In order to evaluate whether the sugar marker has high predictive values for the liver damage, we tested N-glycan profiling on the CCl4 treated, co-treated with INF-γ and control rat groups (Wistar). Take into account that N-glycosylation in animals is species-specific, we therefore profiled the N-linked glycan to get a fingerprinting in rat serum. […] N-glycan peaks of P1, P3, P5, P6, P7, P9 are consistent with that of human. However, four peaks (rP2, rP4, rP8 and rP10) are rat-specific N-linked sugars.
Moreover, the rat serum alanine aminotransferase activity (ALAT), aspartate aminotransferase activity (ASAT) and total bilirubin concentration (TBil) were analysed using routine photometric tests on a Hitachi 747 analyser (Boehringer Mannheim GmbH, Diagnostica) for subsequent assessment of hepatic injury and liver function, respectively.

The subject of series [2] is rat. Description: Serum N-glycan profile of rats treated with CCl4 and co-treated with Interferon-γ. Format: in vivo, rat (Wistar). The method, then:
The glycoproteins were denatured by addition of at least 2 volumes RCM buffer (8 M urea, 360 mM Tris, pH 8.6, 3.2 mM EDTA) to each sample in a final volume of at least 50 μl, and the samples were then placed at 50° C. for 1 h. The N-linked glycans present on the serum proteins in 5 μl of serum were released after binding the protein to an Immobilon P-lined 96-well plate. They were then derivatized with APTS (Molecular Probes, Eugene, Calif., USA) and analyzed on an ABI 377A DNA sequencer (Applied Biosystems).
as §1

[3] abbreviates: rat, repeated administration of CCl4, Week 12, vs control group.
[4] abbreviates: CCl4 treated rat co-treated with INF-γ, Week 12, vs CCl4 group.

Consider `ClC(Cl)(Cl)Cl` [CCl4], for which, in the series on rat [1] (setting [3]), the “serum alanine aminotransferase activity (ALAT)” value was “significantly raised”, the “serum aspartate aminotransferase activity (ASAT)” value was “significantly raised” and the “total bilirubin concentration (TBil)” value is “significantly raised”. In addition, the “trends of six serum N-glycan peaks” value in the series with rat [2] (CCl4 treated rat group compared to control group) was “either increased or decreased”. The “N-glycan profile between CCl4 group and control group” value in the series with rat [2] (rat, Week 9, peaks P4 and P5 even in Week 6) is on record as “different trends”.

B1: Interferon-γ (protein, UniProt P01581 23-156, looked up)
Interferon gamma: QGTLIESLESLKNYFNSSSMDAMEGKSLLLDIWRNWQKDGNTKILESQIISFYLRLFEVLKDNQAISNNISVIESHLITNFFSNSKAKKDAFMSIAKFEVNNPQIQHKAVNELIRVIHQLSPESSLRKRKRSRC
notes: Interferon-γ co-treatment of CCl4 treated rats
In the case of B1, the “liver damage caused by CCl4 treatment” value in the series with rat [1] (CCl4 treated rat co-treated with INF-γ, Week 12) is reported as “partially protected”. Further, in the series with rat [1] (setting [4]), the “serum ALAT level” value was “decreasing levels”, the “serum ASAT level” value was “decreasing levels” and the serum bilirubin level result is “decreasing levels”. Moreover, the “changes of serum N-glycan peaks” value in the series on rat [2] (INF-γ co-treated group compared to CCl4 group) is given as “less slop changes than CCl4-group”.
